From ChEMBL document CHEMBL5143695, “Benzobis(imidazole) derivatives as STAT3 signal inhibitors with antitumor activity” (Bioorg Med Chem, 2022)

Columns and labels:
[1] = Inhibition of IL-6/JAK/STAT3 signalling pathway in HEK-blue IL-6 cells incubated for 16 hrs by SEAP reporter gene based QUANTI- blue assay; format: cell-based; conditions: Homo sapiens, HEK-Blue IL-6, 16 h
[2] = Cytotoxicity against HEK-Blue IL-6 cells; format: toxicity, cell-based; conditions: human
ECa-109 cell line = assay: Antitumor activity against human EC109 cells assessed as reduction in cell viability incubated for 72 hrs by MTT assay; format: functional, cell-based; conditions: ECa-109, 72 h
HepG2 [3] = assay: Antitumor activity against human HepG2 cells assessed as reduction in cell viability incubated for 72 hrs by MTT assay; format: functional, cell-based; conditions: HepG2, 72 h
[4] = Toxicity in BALB/c athymic nude mouse xenografted with human HepG2 cells assessed as decrease in body weight at 60 mg/kg, po administered daily for 24 days; format: organism-based; conditions: in vivo, 576 h, time 24 day
HepG2 [5] = assay: Antitumor activity against human HepG2 cells xenografted in BALB/c athymic nude mouse assessed as tumor growth inhibition at 60 mg/kg, po administered daily for 24 days relative to control; format: functional; conditions: HepG2, 576 h, time 24 day, read-out: TGI

SMILES	IC50 [1] [µM]	IC50 [2] [µM]	IC50 (ECa-109 cell line) [µM]	IC50 (HepG2 [3]) [µM]	Activity [4]	inhibition in vivo at 60 mg/kg (HepG2 [5]) [%]
CCCn1c(-c2cc(OC)cc(OC)c2)nc2cc3nc(-c4cc(OC)cc(OC)c4)n(CCC)c3cc21	> 10	> 10	–	–	–	–
CCCn1c(-c2scc3ccccc23)nc2cc3nc(-c4scc5ccccc45)n(CCC)c3cc21	> 10	> 10	–	–	–	–
CCCn1c(-c2ccc(C)nc2)nc2cc3nc(-c4ccc(C)nc4)n(CCC)c3cc21	> 10	> 10	–	–	–	–
CCCn1c(-c2cccn2C)nc2cc3nc(-c4cccn4C)n(CCC)c3cc21	> 10	> 10	–	–	–	–
CCCn1c(-c2cccc(O)c2)nc2cc3nc(-c4cccc(O)c4)n(CCC)c3cc21	10.2	> 10	–	–	–	–
CCCn1c(-c2ccc3cc[nH]c3c2)nc2cc3nc(-c4ccc5cc[nH]c5c4)n(CCC)c3cc21	> 10	> 10	–	–	–	–
CCCn1c(-c2ccc(C(F)(F)F)cc2)nc2cc3nc(-c4ccc(C(F)(F)F)cc4)n(CCC)c3cc21	> 10	> 10	–	–	–	–
CCCn1c(-c2cc(C(C)(C)C)cc(C(C)(C)C)c2)nc2cc3nc(-c4cc(C(C)(C)C)cc(C(C)(C)C)c4)n(CCC)c3cc21	> 10	> 10	–	–	–	–
CCCn1c(-c2cccc(C#N)c2)nc2cc3nc(-c4cccc(C#N)c4)n(CCC)c3cc21	6.7	> 10	–	–	–	–
CCCCn1c(-c2cccc(F)c2)nc2cc3nc(-c4cccc(F)c4)n(CCCC)c3cc21	7.85	> 10	–	–	–	–
CC(C)Cn1c(-c2cccc(F)c2)nc2cc3nc(-c4cccc(F)c4)n(CC(C)C)c3cc21	> 10	> 10	–	–	–	–
CCCn1c(-c2cccc3ccccc23)nc2cc3nc(-c4cccc5ccccc45)n(CCC)c3cc21	9.5	> 10	–	–	–	–
CCCn1c(-c2cccc(F)c2)nc2cc3nc(-c4cccc(F)c4)n(CCC)c3cc21	1.5	> 10	> 20	> 20	–	–
CCCn1c(-c2ccccc2)nc2cc3nc(-c4ccccc4)n(CCC)c3cc21	7.21	> 10	12.6	13.2	–	–
CCCn1c(-c2ccc[nH]2)nc2cc3nc(-c4ccc[nH]4)n(CCC)c3cc21	> 10	> 10	–	–	–	–
CCCn1c(-c2cccc(Cl)c2)nc2cc3nc(-c4cccc(Cl)c4)n(CCC)c3cc21	2.89	> 10	> 20	17.9	–	–
CCCn1c(-c2cc(F)cc(F)c2)nc2cc3nc(-c4cc(F)cc(F)c4)n(CCC)c3cc21	> 10	> 10	–	–	–	–
CCCn1c(-c2cncnc2)nc2cc3nc(-c4cncnc4)n(CCC)c3cc21	> 10	> 10	–	–	–	–
CCCn1c(-c2cc(OC)c(OC)c(OC)c2)nc2cc3nc(-c4cc(OC)c(OC)c(OC)c4)n(CCC)c3cc21	> 10	> 10	–	–	–	–
CCCn1c(-c2cccc(OCC)c2)nc2cc3nc(-c4cccc(OCC)c4)n(CCC)c3cc21	> 10	> 10	–	–	–	–
CCCn1c(-c2cccc(C(F)(F)F)c2)nc2cc3nc(-c4cccc(C(F)(F)F)c4)n(CCC)c3cc21	1.24	> 10	> 20	> 20	–	–

SMILES	IC50 [1] [µM]	IC50 [2] [µM]	IC50 (ECa-109 cell line) [µM]	IC50 (HepG2 [3]) [µM]	Activity [4]	inhibition in vivo at 60 mg/kg (HepG2 [5]) [%]
CCCn1c(-c2cccc(OC)c2)nc2cc3nc(-c4cccc(OC)c4)n(C4CCN(C)CC4)c3cc21	> 10	> 10	–	–	–	–
CCCn1c(-c2nccs2)nc2cc3nc(-c4nccs4)n(CCC)c3cc21	> 10	> 10	–	–	–	–
CCCn1c(C2CCC2)nc2cc3nc(C4CCC4)n(CCC)c3cc21	> 10	> 10	–	–	–	–
CCCn1c(-c2cccc(C)c2)nc2cc3nc(-c4cccc(C)c4)n(CCC)c3cc21	2	> 10	> 20	6.12	–	–
CCCn1c(C2CC2)nc2cc3nc(C4CC4)n(CCC)c3cc21	> 10	> 10	–	–	–	–
CCCn1c(-c2ccc(Cl)c(C(F)(F)F)c2)nc2cc3nc(-c4ccc(Cl)c(C(F)(F)F)c4)n(CCC)c3cc21	> 10	> 10	–	–	–	–
Fc1cccc(-c2nc3cc4nc(-c5cccc(F)c5)n(C5CC5)c4cc3n2C2CC2)c1	> 10	> 10	–	–	–	–
CCn1c(-c2cccc(F)c2)nc2cc3nc(-c4cccc(F)c4)n(CC)c3cc21	> 10	> 10	–	–	–	–
CCCn1c(-c2ccccc2F)nc2cc3nc(-c4ccccc4F)n(CCC)c3cc21	10.3	> 10	–	–	–	–
CNC(=O)c1cc(Oc2ccc(NC(=O)Nc3ccc(Cl)c(C(F)(F)F)c3)cc2)ccn1 [SORAFENIB]	–	–	–	–	Toxic	88.4
CCCn1c(-c2ccc(C)o2)nc2cc3nc(-c4ccc(C)o4)n(CCC)c3cc21	> 10	> 10	–	–	–	–
CCCn1c(C2CCOC2)nc2cc3nc(C4CCOC4)n(CCC)c3cc21 (stereo unspecified)	> 10	> 10	–	–	–	–
CCCn1c(C2CCOCC2)nc2cc3nc(C4CCOCC4)n(CCC)c3cc21	> 10	> 10	–	–	–	–
CCCn1c(-c2ccccc2)nc2cc3nc(-c4ccccc4)n(CCN(C)C)c3cc21	> 10	> 10	–	–	–	–
CCCn1c(-c2cccc(C(=O)OC)c2)nc2cc3nc(-c4cccc(C(=O)OC)c4)n(CCC)c3cc21	8.89	> 10	–	–	–	–
CCCn1c(-c2cccc(OC)c2)nc2cc3nc(-c4cccc(OC)c4)n(CCN(C)C)c3cc21	> 10	> 10	–	–	–	–
C[C@H]1COC2=C1C(=O)C(=O)c1c2ccc2c1CCCC2(C)C [CRYPTOTANSHINONE]	6.61	> 10	5.01	29.2	–	–
CCCn1c(C2CCCCC2)nc2cc3nc(C4CCCCC4)n(CCC)c3cc21	8.11	> 10	–	–	–	–
CCCn1c(-c2ccc(F)c(C(F)(F)F)c2)nc2cc3nc(-c4ccc(F)c(C(F)(F)F)c4)n(CCC)c3cc21	> 10	> 10	–	–	–	–
CCCn1c(-c2ccc(F)cc2)nc2cc3nc(-c4ccc(F)cc4)n(CCC)c3cc21	> 10	> 10	–	–	–	–
CCCn1c(-c2cccc(Br)c2)nc2cc3nc(-c4cccc(Br)c4)n(CCC)c3cc21	> 10	> 10	–	–	–	–
